Where “and” joins values, the source holds several entries; their conditions need not be identical. Identical values can stand only once.
Tests used:
mice = assay: Systemic toxicity of trans and cis isomers of cyclolignans in mice; conditions: nude mice; for Survival (in words) / Toxic signs (in words): 28 mg/kg/d intraperitoneally daily for 5 days; for No. of surviving mice/No. of treated mice: 28 mg/kg/d intraperitoneally daily
Experimental: The experiment was carried out to determine the significance of the stereochemistry of cyclolignans for their general toxicity by investigating systemic toxic effects of trans and cis isomers of cyclolignans in mice. Five-week old pathogen-free nude mice (nu/nu) were used and housed within plastic isolators in a sterile facility. Experimental treatments with podophyllotoxin, deoxypodophyllotoxin, picropodophyllin and deoxypicropodophyllin were performed by injecting each compound dissolved in 10 microL of a mixture of DMSO and saline intraperitoneally daily for 5 days. The dose injected once daily was 28 mg/kg/d and 6 mice were used for each drug. Control mice were treated with the vehicle only.
The mice were checked daily for signs of discomfort, diseases and weight loss.

human T lymphocytes = assay: 3H-thymidine incorporation, Concanavalin A stimulated proliferation of lymphocytes from patients; type: cell-based; conditions: for 3H-thymidine in cyclolignan-treated lymphocytes (% of 3H-thymidine in control lymphocytes): 2.5 microM, Con A three days, 18 h incorporation; for Proliferation of peripheral blood T lymphocytes, in words: lymphocytes of patients with autoimmune diseases
Experimental: The effects of picropodophyllin and deoxypicropodophyllin on human T lymphocyte function, i.e. the proliferation capacity of human T lymphocytes in response to an antigen/mitogen, were measured using a time course tritium labelled thymidine incorporation assay. Lymphocytes from peripheral blood of patients were purified by ficoll-hypaque (Pharmacia, Amersham) and were distributed in 96 well plates at 100,000 cells per well, and all samples were in triplicates. Cells were kept in RPMI 1640 medium (Life technologies) supplemented with 10% human serum (Sigma), 100 units/mL penicillin (Sigma), 100 microg/mL streptomycin (Sigma) and 2 mM L-glutamine (Sigma). Proliferation of lymphocytes was stimulated with the T lymphocyte mitogen Concanavalin A (Con A) 10 microg/mL (Sigma). After three days incubation with Con A, with and without the cyclolignans, 1 microCi ^3H-thymidine (Amersham) was added to each well, and after another eighteen hours cells were harvested and washed, and the amount of ^3H-thymidine incorporated into newly synthesized DNA determined by scintillation counting.

helper T lymphocytes = assay: Activation of helper T lymphocytes in human blood (FACS, CD4/CD69); type: cell-based; conditions: 30 min
Experimental: (§1) The effects of picropodophyllin and deoxypicropodophyllin on the activation of subgroups of lymphocytes in human blood were determined by flow cytometry (FACS). Lymphocytes from human peripheral blood were purified by ficoll-hypaque (Pharmacia, Amersham) and then distributed in FACS tubes at 500,000 cells in 0.5 mL per tube. Cells were kept in RPMI medium (Life technologies) supplemented with 10% bovine serum […] (BGS; Sigma), 1% penicillin-streptomycin (Sigma) and 1% glutamine (Sigma). The cells were incubated for 30 min at room temperature in the absence (control lymphocytes) or presence of picropodophyllin and deoxypicropodophyllin at 0.1 and 2.5 microM concentrations. After washing, the cells were stained 15 min for the surface molecules CD4, CD8 and CD69. CD4 and CD8 are expressed by two subsets of T lymphocytes, i.e. helper T cells and cytotoxic T cells, respectively, and CD69 is a lymphocyte activation marker. The staining was performed with the following fluorophore conjugated antibodies: anti-CD4PB; anti-CD8APC; anti-CD69APCCy7 (Beckton Dickinson). The cells were then washed with PBS containing 2% FCS and 0.05% NaN3 (FACS buffer) and then stained with […] (PI)/FITC Annexin V (Beckton Dickinson) to determine apoptosis of cells, and after incubation for another 15 min and washing, the cells were analysed by flow cytometry (FACSCalibur; Beckton Dickinson). Data were evaluated using the Cellquest computer software (Beckton Dickinson).

cytotoxic T lymphocytes = assay: Activation of cytotoxic T lymphocytes in human blood (FACS, CD8/CD69); type: cell-based; conditions: for CD8, percent cytotoxic T cells of total cells (events) / CD8/CD69, percent activated cytotoxic T cells of total cytotoxic T cells: 30 min; for Effect on number of activated cytotoxic T lymphocytes (CD8/CD69), in words: 0.1 and 2.5 microM
Experimental: as §1

[1] = test system: lymphocytes from human peripheral blood; assay: Apoptosis of human blood lymphocytes (PI/Annexin V, FACS); type: cell-based; conditions: 30 min
Experimental: as §1

blood lymphocytes [2] = assay: Effect of seven-day treatment on blood lymphocytes in mice; type: in vivo; conditions: 20 mg/kg/12 h intraperitoneally, 7 days
Experimental: In this experiment, healthy 20-gram mice were treated with picropodophyllin by intraperitoneal injections twice daily, the dose being 20 mg/kg/12 h using DMSO/sunflower oil, 9:1, as vehicle. The control group was treated with the vehicle only (totally per day: 20 μL DMSO/oil). Each group included 3 mice. After treatment for 7 days, the mice were sacrificed and blood samples were taken. The number of blood cells in the samples was counted using an Advia 120 Hematology system from Bayer AB (Diagnostica).

blood lymphocytes [3] = assay: Effect of two-week treatment on blood lymphocytes in rats; type: in vivo, rats (Sprague-Dawley); conditions: 20 mg/kg/12 h intraperitoneally, 14 days
Experimental: In this experiment, healthy 200-grams rats (Sprague-Dawley) were treated with picropodophyllin by intraperitoneal injections twice daily, the dose being 20 mg/kg/12 h, using DMSO/sunflower oil, 9:1, as vehicle. The control group was treated with the vehicle only (totally per day: 200 μL DMSO). Each group included 5 rats. After treatment for 14 days, the rats were sacrificed and blood samples were taken. The number of blood cells in the samples was counted using an Advia 120 Hematology system from Bayer AB (Diagnostica).

[4] = MS (multiple sclerosis) patients
[5] = RA (rheumatoid arthritis) patients
[6] = UC (ulcerative colitis) patients

COc1cc([C@@H]2c3cc4c(cc3C[C@H]3COC(=O)[C@H]32)OCO4)cc(OC)c1OC [Deoxypicropodophyllin]
Survival (in words) (mice): survived the whole 5-day period
Toxic signs (in words) (mice): did not exhibit any obvious toxic signs
No. of surviving mice/No. of treated mice (mice; Day 1): 6/6
No. of surviving mice/No. of treated mice (mice; Day 2): 6/6
No. of surviving mice/No. of treated mice (mice; Day 3): 6/6
No. of surviving mice/No. of treated mice (mice; Day 4): 6/6
No. of surviving mice/No. of treated mice (mice; Day 5): 6/6
3H-thymidine in cyclolignan-treated lymphocytes (% of 3H-thymidine in control lymphocytes) (human T lymphocytes; AD (Alzheimer's disease) patients): 9%
3H-thymidine in cyclolignan-treated lymphocytes (% of 3H-thymidine in control lymphocytes) (human T lymphocytes; CD (Crohn's disease) patients): 8%
3H-thymidine in cyclolignan-treated lymphocytes (% of 3H-thymidine in control lymphocytes) (human T lymphocytes; [4]): 8%
3H-thymidine in cyclolignan-treated lymphocytes (% of 3H-thymidine in control lymphocytes) (human T lymphocytes; [5]): 7%
3H-thymidine in cyclolignan-treated lymphocytes (% of 3H-thymidine in control lymphocytes) (human T lymphocytes; [6]): 10%
Proliferation of peripheral blood T lymphocytes, in words (human T lymphocytes): suppressed
CD4, percent helper T cells of total cells (events) (helper T lymphocytes; 0.1 μM): 36.7%
CD4/CD69, percent activated helper T cells of total helper T cells (helper T lymphocytes; 0.1 μM): 13.2%
CD4, percent helper T cells of total cells (events) (helper T lymphocytes; 2.5 μM): 37.1%
CD4/CD69, percent activated helper T cells of total helper T cells (helper T lymphocytes; 2.5 μM): 7.5%
CD8, percent cytotoxic T cells of total cells (events) (cytotoxic T lymphocytes; 0.1 μM): 34.7%
CD8/CD69, percent activated cytotoxic T cells of total cytotoxic T cells (cytotoxic T lymphocytes; 0.1 μM): 4.1%
CD8, percent cytotoxic T cells of total cells (events) (cytotoxic T lymphocytes; 2.5 μM): 32.8%
CD8/CD69, percent activated cytotoxic T cells of total cytotoxic T cells (cytotoxic T lymphocytes; 2.5 μM): 0.9%
Effect on number of activated cytotoxic T lymphocytes (CD8/CD69), in words (cytotoxic T lymphocytes): dose-dependently decreased
ANNEXIN V, percent of total cells ([1]; 0.1 μM): 1.3%
PI ANNEXIN V, percent of total cells ([1]; 0.1 μM): 9.2%
PI, percent of total cells ([1]; 0.1 μM): 0%
ANNEXIN V, percent of total cells ([1]; 2.5 μM): 1.5%
PI ANNEXIN V, percent of total cells ([1]; 2.5 μM): 9.3%
PI, percent of total cells ([1]; 2.5 μM): 0%

COc1cc([C@@H]2c3cc4c(cc3[C@H](O)[C@H]3COC(=O)[C@@H]23)OCO4)cc(OC)c1OC [Picropodophyllin]
Survival (in words) (mice): survived the whole 5-day period
Toxic signs (in words) (mice): did not exhibit any obvious toxic signs
No. of surviving mice/No. of treated mice (mice; Day 1): 6/6
No. of surviving mice/No. of treated mice (mice; Day 2): 6/6
No. of surviving mice/No. of treated mice (mice; Day 3): 6/6
No. of surviving mice/No. of treated mice (mice; Day 4): 6/6
No. of surviving mice/No. of treated mice (mice; Day 5): 6/6
Lymphocytes in blood (blood lymphocytes [2]; individual mice, listed as PPP, 20 mg/kg): 3e+07 L⁻¹ and 1e+07 L⁻¹ and 0 L⁻¹
Effect on number of blood lymphocytes (in words) (blood lymphocytes [2]; mice): reduced the number of blood lymphocytes
Lymphocytes in blood (blood lymphocytes [3]; individual rats, listed as PPP, 20 mg/kg): 3.16e+09 L⁻¹ and 4.5e+08 L⁻¹ and 4.2e+09 L⁻¹ and 2.8e+09 L⁻¹ and 3.86e+09 L⁻¹
Decrease of blood lymphocytes (blood lymphocytes [3]; rats, versus controls): more than 50%
3H-thymidine in cyclolignan-treated lymphocytes (% of 3H-thymidine in control lymphocytes) (human T lymphocytes; AD patients): 7%
3H-thymidine in cyclolignan-treated lymphocytes (% of 3H-thymidine in control lymphocytes) (human T lymphocytes; CD (Crohn's disease) patients): 8%
3H-thymidine in cyclolignan-treated lymphocytes (% of 3H-thymidine in control lymphocytes) (human T lymphocytes; [4]): 10%
3H-thymidine in cyclolignan-treated lymphocytes (% of 3H-thymidine in control lymphocytes) (human T lymphocytes; [5]): 15%
3H-thymidine in cyclolignan-treated lymphocytes (% of 3H-thymidine in control lymphocytes) (human T lymphocytes; [6]): 13%
Proliferation of peripheral blood T lymphocytes, in words (human T lymphocytes): suppressed
CD4, percent helper T cells of total cells (events) (helper T lymphocytes; 0.1 μM): 36.7%
CD4/CD69, percent activated helper T cells of total helper T cells (helper T lymphocytes; 0.1 μM): 11.0%
CD4, percent helper T cells of total cells (events) (helper T lymphocytes; 2.5 μM): 36.3%
CD4/CD69, percent activated helper T cells of total helper T cells (helper T lymphocytes; 2.5 μM): 9.7%
CD8, percent cytotoxic T cells of total cells (events) (cytotoxic T lymphocytes; 0.1 μM): 35.0%
CD8/CD69, percent activated cytotoxic T cells of total cytotoxic T cells (cytotoxic T lymphocytes; 0.1 μM): 3.2%
CD8, percent cytotoxic T cells of total cells (events) (cytotoxic T lymphocytes; 2.5 μM): 34.8%
CD8/CD69, percent activated cytotoxic T cells of total cytotoxic T cells (cytotoxic T lymphocytes; 2.5 μM): 1.8%
Effect on number of activated cytotoxic T lymphocytes (CD8/CD69), in words (cytotoxic T lymphocytes): dose-dependently decreased
ANNEXIN V, percent of total cells ([1]; 0.1 μM): 0.9%
PI ANNEXIN V, percent of total cells ([1]; 0.1 μM): 9.4%
PI, percent of total cells ([1]; 0.1 μM): 0%
ANNEXIN V, percent of total cells ([1]; 2.5 μM): 0.9%
PI ANNEXIN V, percent of total cells ([1]; 2.5 μM): 10.5%
PI, percent of total cells ([1]; 2.5 μM): 0%

COc1cc([C@@H]2c3cc4c(cc3[C@H](O)[C@H]3COC(=O)[C@H]23)OCO4)cc(OC)c1OC [Podophyllotoxin, reference compound]
Survival (in words) (mice): on the second day all of the animals were dead
Toxic signs (in words) (mice): became quickly sick
No. of surviving mice/No. of treated mice (mice; Day 1): 2/6
No. of surviving mice/No. of treated mice (mice; Day 2): 0/6
No. of surviving mice/No. of treated mice (mice; Day 3): 0/6
No. of surviving mice/No. of treated mice (mice; Day 4): 0/6
No. of surviving mice/No. of treated mice (mice; Day 5): 0/6

COc1cc([C@@H]2c3cc4c(cc3C[C@H]3COC(=O)[C@@H]32)OCO4)cc(OC)c1OC [Deoxypodophyllotoxin, reference compound]
Survival (in words) (mice): after 3 days they were all dead
Toxic signs (in words) (mice): serious toxic signs on the second day
No. of surviving mice/No. of treated mice (mice; Day 1): 6/6
No. of surviving mice/No. of treated mice (mice; Day 2): 4/6
No. of surviving mice/No. of treated mice (mice; Day 3): 0/6
No. of surviving mice/No. of treated mice (mice; Day 4): 0/6
No. of surviving mice/No. of treated mice (mice; Day 5): 0/6

From patent publication US20110178050A1, “USE OF CYCLOLIGNANS FOR THE TREATMENT OF A HYPERACTIVE IMMUNE SYSTEM” (Axelar AB, priority 2008, published 2011)
